Results on one compound are retold here after patent publication US20240335429A1, “MOLECULAR GLUE AND SALL4 DEGRADER” (National University of Singapore, priority 2021, published 2024).

pIC50: −log10 of the molar value.

For one test, the system named is SNU-182 cells. As to the kind of experiment: CellTiter-Glo viability assay, SNU-182. The class given is cell-based. The conditions noted are these: Homo sapiens, 72 h. The protocol: Cells were plated in RPMI culture media (40 μL) in 384-well white, flat-bottom plates (Corning) and incubated at 37° C. in a humidified atmosphere of 5% CO2 overnight. The numbers of cells per well were 1,500 for SNU-398 and SNU-182, 750 for SNU-387, SNU-449, SNU-475 and SNU-423, and 1,000 for H661 and H1299. After overnight incubation, 10 μL of drug (1% DMSO in RPMI) at designed concentrations were added to the cells. The cells were then incubated for 16, 24, 48, 72, or 96 h at 37° C. in a humidified atmosphere of 5% CO2 before CellTiter-Glo reagent (10 μL) was dispensed to the wells. The cells were incubated at room temperature for a minimum of 10 min. After that, luminescence readings were recorded by a Microplate Reader (PHERAstar or Tecan Infinite M200 Pro) according to the manufacturer's instruction for measuring the luminescence.
A general note: In ATP-based viability assays light output follows the ATP content of the culture.

Another test has as its system RBBP4. As to the kind of experiment: Immunoblot of RBBP4 in SNU-398 cells. It is filed as cell-based, human. Conditions: 16 μM, 24 h. The protocol:
RIPA buffer containing freshly added protease inhibitors (2 mM PMSF) and protease inhibitor cocktail was used for cell lysis. The lysed cells were incubated for 10 min on ice and subsequently centrifuged at 4° C. for 10 min at 14,000 rpm. The protein concentrations of cell lysates were assessed using Bradford Assay as per manufacturer's instructions. The samples were denatured using 4× Sample buffer at 95° C. for 5 min. The samples were size resolved using polyacrylamide gel (8%) and Mini-PROTEAN Tetra Cell module. The size-resolved proteins were transferred onto PVDF via electroblotting using Mini Trans-Blot® module. The membrane was blocked using 5% BSA in TBST. The membrane was incubated with appropriate primary antibody (overnight) and secondary antibody (1 h). Immobilon Crescendo Western HRP substrate was used for signal development and images were acquired using darkroom development techniques.
26S proteasome complex and neddylation was inhibited by cotreating MG132 at 1 and 3 μM and MLN4924 at 10 and 15 μM for 18 h, 20 h, 24 h or 48 h with desired concentrations of QE-18-WG07 in SNU-398, H661 and SNU-182 cells. After 18 h or 24 h of treatment, cells were then lysed and subjected to further protein extraction and immunoblotting by following the protocol in Example 4. For caspase glo assay, 20 h of cotreatment was performed by following the protocol in Example 5. […]

Test [1] has as its target T1, SALL4B-Nluc in H1299 cells (Homo sapiens, UniProt Q96SW2+Q9UJQ4).
T1 construct: expressed in transfected cells
Description: Dual-luciferase SALL4B reporter cellular assay (main screen), Nluc/Fluc ratio. The class given is cell-based. The text has this:
SALL4A or SALL4B was cloned into the dual-luciferase plasmid (pLL3.7-EF1a-IRES-Gateway-nluc-2xHA-IRES2-fluc-hCL1-P2A-Puro from Prof. William G. Kaelin group) to create a stable cell line (H1299, SALL4 negative) that ectopically express the SALL4A or B-NanoLuc fusion protein. SALL4A or B fused to nanoluciferase (Nluc) was expressed in a multicistronic mRNA with control firefly luciferase (Fluc). The measurement of Nluc/Fluc ratio enabled the determination of SALL4 fusion protein degradation relative to the internal Fluc control, independent of effects on transcription (FIG. 1A-B).
The assay was performed as described in Example 1 except in a 1,536-well plate which allows HTS of thermal shift hits from the primary screen, searching for SALL4 small molecule binders that can degrade the oncogenic SALL4B isoform. H1299 cells that stably express SALL4A/B_Nluc_Fluc were seeded in a 1,536-well clear bottom white plate (Corning) at 2,000 cells per well in RPMI medium (6 μL) and grown overnight (16 h) at 37° C., 5% CO2. Cells were treated with 8 μM of compounds for 6 h. Nano-Glo® Dual-Luciferase® Reporter Assay System and Pherastar plate reader were used for measuring the luciferase signal, following the manufacturer's instruction. For data analysis, the Nanoluc luminescence is normalized to firefly luciferase reading and then compared to the DMSO control. The screen was performed in triplicates.
The inventors treated H1299 cells overexpressing SALL4B_Nluc and the HCC (SNU-398, SNU-182) and NSCLC cells (H661) with increasing concentrations of QE-18-WG07 and IMiDs, and assayed the SALL4B_Nluc, as well as the endogenous SALL4A and B levels by immunoblots described in Example 4.

As a reminder, the pIC50 is −log10 of the IC50, conventionally taken in molar units. The Dmax is the greatest extent of degradation seen.

T1 sequence (Q9UJQ4 1-616 isoform Q9UJQ4-2): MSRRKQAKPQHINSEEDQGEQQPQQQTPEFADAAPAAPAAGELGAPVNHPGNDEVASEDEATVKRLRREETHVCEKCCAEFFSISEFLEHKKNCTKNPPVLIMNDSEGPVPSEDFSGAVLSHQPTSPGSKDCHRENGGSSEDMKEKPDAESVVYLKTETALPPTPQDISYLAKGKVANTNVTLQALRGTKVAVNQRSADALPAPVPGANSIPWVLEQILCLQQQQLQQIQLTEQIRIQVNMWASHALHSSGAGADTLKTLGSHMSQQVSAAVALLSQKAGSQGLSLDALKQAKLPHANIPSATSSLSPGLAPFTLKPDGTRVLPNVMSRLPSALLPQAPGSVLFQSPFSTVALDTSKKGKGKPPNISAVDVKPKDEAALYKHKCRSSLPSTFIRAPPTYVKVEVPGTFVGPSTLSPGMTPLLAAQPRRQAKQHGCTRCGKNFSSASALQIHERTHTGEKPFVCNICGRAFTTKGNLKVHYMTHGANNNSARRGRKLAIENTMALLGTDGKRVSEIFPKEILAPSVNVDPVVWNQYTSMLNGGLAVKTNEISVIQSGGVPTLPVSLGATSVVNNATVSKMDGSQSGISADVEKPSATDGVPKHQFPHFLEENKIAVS
T1 sequence (Q96SW2 whole entry): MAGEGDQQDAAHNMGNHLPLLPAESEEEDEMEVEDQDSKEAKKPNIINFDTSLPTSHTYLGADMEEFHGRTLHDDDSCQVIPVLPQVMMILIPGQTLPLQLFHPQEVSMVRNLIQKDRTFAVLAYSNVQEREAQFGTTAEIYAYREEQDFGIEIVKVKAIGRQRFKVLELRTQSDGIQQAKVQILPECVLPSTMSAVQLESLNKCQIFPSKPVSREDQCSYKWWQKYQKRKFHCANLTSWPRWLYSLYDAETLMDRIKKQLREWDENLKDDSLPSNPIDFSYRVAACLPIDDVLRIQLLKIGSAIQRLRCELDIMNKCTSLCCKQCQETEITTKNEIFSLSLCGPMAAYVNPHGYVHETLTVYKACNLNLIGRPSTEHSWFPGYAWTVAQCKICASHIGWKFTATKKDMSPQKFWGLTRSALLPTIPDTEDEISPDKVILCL
T1 sequence (Q16531 whole entry partner): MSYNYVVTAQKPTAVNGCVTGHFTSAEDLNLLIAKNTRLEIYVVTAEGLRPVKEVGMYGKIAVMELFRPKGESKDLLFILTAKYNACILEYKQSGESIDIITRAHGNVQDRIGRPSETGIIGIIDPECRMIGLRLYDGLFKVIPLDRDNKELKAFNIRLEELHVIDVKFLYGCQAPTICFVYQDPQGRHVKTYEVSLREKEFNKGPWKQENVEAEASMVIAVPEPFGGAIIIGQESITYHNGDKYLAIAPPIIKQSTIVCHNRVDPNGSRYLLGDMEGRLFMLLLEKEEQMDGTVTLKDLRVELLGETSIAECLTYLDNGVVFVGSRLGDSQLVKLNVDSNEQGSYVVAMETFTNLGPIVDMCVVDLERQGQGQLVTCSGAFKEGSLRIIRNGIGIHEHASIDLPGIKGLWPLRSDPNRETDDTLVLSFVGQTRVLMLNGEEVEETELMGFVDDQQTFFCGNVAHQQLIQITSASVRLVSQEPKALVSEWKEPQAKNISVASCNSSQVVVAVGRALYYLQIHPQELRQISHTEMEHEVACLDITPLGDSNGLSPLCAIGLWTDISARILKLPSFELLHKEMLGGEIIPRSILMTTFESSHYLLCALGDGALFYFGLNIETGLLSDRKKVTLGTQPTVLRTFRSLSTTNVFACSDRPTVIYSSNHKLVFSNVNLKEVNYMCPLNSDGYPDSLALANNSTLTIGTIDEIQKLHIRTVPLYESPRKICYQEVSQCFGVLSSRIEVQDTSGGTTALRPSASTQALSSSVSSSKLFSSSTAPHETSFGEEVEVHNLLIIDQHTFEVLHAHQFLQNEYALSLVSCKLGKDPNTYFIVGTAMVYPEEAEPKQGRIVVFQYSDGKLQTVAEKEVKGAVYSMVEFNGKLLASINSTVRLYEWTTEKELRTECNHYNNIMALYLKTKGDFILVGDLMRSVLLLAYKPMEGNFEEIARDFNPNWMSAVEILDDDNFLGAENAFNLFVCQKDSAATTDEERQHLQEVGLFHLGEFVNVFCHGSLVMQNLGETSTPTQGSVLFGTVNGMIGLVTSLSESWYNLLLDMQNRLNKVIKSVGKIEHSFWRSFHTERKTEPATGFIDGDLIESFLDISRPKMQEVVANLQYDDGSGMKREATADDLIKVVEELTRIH

For the compound `COc1ccccc1NC(=O)Nc1ccc([N+](=O)[O-])cc1O` [QE-18-WG07], the Emax at 1 µM in the test with SNU-182 cells (achieved at 1 μM, read-out: maximum growth inhibition Emax) was 90 to 100%. Moreover, the pIC50 in the test on SNU-182 cells (read-out: IC50 of cell viability) is 6.02. Moreover, the “effect on the level of RBBP4” value in the test on RBBP4 is “no observable effect”. Besides, in test [1] (8 μM, 6 h, H1299 cells overexpressing SALL4B fused with Nluc), the main screen readout is −31. For the same compound, the maximal degradation (Dmax) in test [1] (NCI-H1299, SALL4B dual-luciferase reporter assay, 9 hours of treatment, read-out: maximum degradation (Dmax) of SALL4B_Nluc) stood at 75%. Besides, the “reduction in the amount of SALL4B protein” value in test [1] (after 6 h of incubation in H1299 cells overexpressing SALL4B fused with Nluc) is on record as 31%. Further, the “SALL4B_Luc Reporter Assay % SALL4B Downregulation” value in test [1] (normalized to DMSO control, mean ± SD (n = 3), 8 μM, 6 h treatment, H1299 cells) was 29.8 ± 1.8%.
